Source: patent publication US6723830B2, “Short peptides which selectively modulate the activity of protein kinases” (Children's Medical Center Corporation, priority 1998, dated 2004)
* marks the point of attachment. Myristoyl = CCCCCCCCCCCCCC(=O)*

How the values were obtained:
[1] = Appetite suppression: food intake and body weight in mice; format: in vivo; details: C57BL mice
Protocol: Male CB6F1 or C57BL mice (Harlan), about 2-4 months old, were fed a pelleted rodent maintenance diet (Koffolk, Tel Aviv, Israel, 19520). The food containers for each group were weighed daily and the average food consumption was calculated per mouse per day.
During the experimental period, the mice were injected intraperitoneally once a day for two consecutive days, 4 mg/mouse, with K085D102 (a Jak2-derived peptide from the αD region) solubilized in 10% DMSO in PBS+0.1% BSA in a volume of 0.2 ml. The control groups were injected with 0.2 ml of the vehicle only.
FIGS. 4 and 5 illustrate the results obtained with CB6F1 mice while Table II summarizes the results obtained with C57BL mice.

B16 melanoma cells = assay: Induction of melanogenesis in B16 melanoma cells, observed by eye; format: cell-based, mouse; details: 5 days incubation; increase in black pigment seen by eye; FIG. 7
Protocol: B16 melanoma cells (a mouse tumor cell line) were cultured in a 24-well plate, 10^5 cells/well, in the presence of various concentrations of K085D102, a Jak2-derived peptide from the αD region. After 5 days incubation in DMEM+10% fetal calf serum under standard conditions, the plate was observed by eye for melanogenesis. Melanogenesis induction was visualized by an increase in the amount of the black pigment in the well. The results are illustrated in FIG. 7 and clearly show a dose response down to a concentration as low as 0.15 μM of the Jak2 peptide of the αD region present in the well.

[2] = test system: Human prostate cancer cells (PC3); assay: Proliferation of human prostate cancer cells PC3 (methylene blue cell count); format: cell-based; details: concentration at which significant inhibition of cell proliferation was observed; 72-80 hours incubation
Protocol: (§1) Human endothelial cells (referred to herein as “HEC cells”) are the cell line described by Schweitzer et al., Laboratory Investigation 76(1):25 (1997). Human prostate cancer cells (PC3) were obtained by the procedures disclosed in Arbiser et al., Proc. Natl. Acad. Sci. 94:861 (1997), the teachings of which are incorporated herein by reference.
(§2) 96 well, flat bottom, tissue culture microtiter plates were pre-coated with gelatin (Difco) immediately prior to cell plating by adding 0.100 ml/well of freshly filtered 1% gelatin in glass double distilled water (DDW). The wells were incubated for about 1 hour at 37° C., and then the excess solution was removed by aspiration.
(§3) Culture medium was prepared from DMEM, penicillin/streptomycin/glutamine (penicillin—100 U/ml; streptomycin—100 μμg/mL; and glutamine—2 mM) and 10% endotoxin free bovine calf serum (Hyclone). A suspension of the cell type being tested at 25×10^3 cells/ml was prepared in the above described culture medium and distributed 0.160 ml/well (about 4000 endothelial cells/well).
(§4) A series of αD peptide stock solutions was prepared by diluting a 10 mM solution of the αD peptide in 100% DMSO with phosphate buffered saline (PBS) containing 0.1% BSA. […]
(§5) The wells were washed one time with borate buffer (0.1 M, pH 8.5). […] After extracting overnight, the O.D. was read at 630 nm to determine the number of cells per well. […]

[3] = test system: Human endothelial cells (HEC cells); assay: Proliferation of human endothelial cells (methylene blue cell count); format: cell-based; details: concentration at which significant inhibition of cell proliferation was observed; 72-80 hours incubation
Protocol: as §1, §2, §3, §4, §5

CD4+ T cells = assay: Th1/Th2 bioassay: IL-4 and IFNγ secretion by ELISA; format: cell-based, Balb/c mice; details: CD4+ T cells incubated 5 days with 0.4, 2 or 10 μM peptide; 24 hour re-stimulation; FIG. 6
Protocol: 0.5×10^6 small resting CD4+ T cells were isolated from lymph nodes of 8 week-old Balb/c mice. These CD4+ T cells were incubated for 5 days in 2 ml culture medium in 24 well plates coated with anti-CD3 and anti-CD28 antibodies: (5 μg/ml and 2 μg/ml, respectively). 0.4, 2 or 10 μM Jak-derived peptides, initially in 10 μl DMSO, were present in the medium during the 5 day activation period. Control wells contained 10 μl of DMSO (the solvent of the peptide).
At the end of the 5 day stimulation period, the medium was replaced with fresh medium containing 10 u/ml IL-2 and the cells were removed from the antibody-coated wells to uncoated wells for a 3 day “rest” and expansion period. Under these stimulating and rest conditions, the differentiation process led to the acquisition of Th2 phenotype (high IL-4 and low IFNγ production upon secondary challenge).
At the end of the rest period, the cells were removed, washed and counted. 0.5×10^6 cells were re-stimulated in 1 ml of culture medium by incubation for 24 hours on anti-CD3-+anti-CD28-coated 24 well plates. At the end of the 24 hour re-stimulation period, the supernatant was removed and the level of secreted IL-4 and IFNγ was determined by ELISA. The results were expressed as u/ml or pg/ml of IL-4 and IFNγ respectively, which were secreted into the culture medium by 0.5×10^6 cells during the re-stimulation period.

fresh adipocytes = assay: Glucose uptake (3H-deoxy glucose) by adipose tissue cells; format: cell-based, rats; details: 10 μM peptide
Protocol: To 3 ml of buffer with 10 mg collagenase, 3 g epididymal fat pad (from 2-3 male rats) was introduced. The fat was cut up with scissors. The pieces of fat were swirled and shaken in a 37° C. water bath set at 100-150 repetitions/minute for approximately 1 hour with swirling every 15 minutes while digesting and every 5 minutes towards the end. About 6 ml of buffer was added to the vial.
A 250μ nylon mesh over the top was secured with a rubber band and the contents of the container were gently squeezed into a 50 ml plastic tube. The total volume for each wash was 15 ml.
The tube was centrifuged. The adipose cells floated to the top of the liquid. The buffer was removed using a 35 ml metal-tipped syringe with a needle. Buffer was added to 15 ml and the clumps of cells were gently broken up by mixing up and down in the syringe. This process was repeated for a total of 4 centrifugations at 1000 with the last centrifugation at 2000 rpm. At this point, any fat was removed from the top of the cells.
Buffer and dilute cell suspension with buffer were removed to cytocrit of 5-10%. The cells were kept at 37° C. for 1 hour.
500 μl buffer was added with or without additives (insulin 10-10,000 μU/ml, peptides 0.1-10 μM) to 10 ml plastic tubes.
500 μl aliquots of the cell suspension were added to the tubes.
After incubation for 30 minutes at 37° C. in a shaking water bath (approximately 300 strokes/minute), 200 μl of buffer containing 3H—Deoxy Glucose (approx. 1200 cpm/μl) was added to each tube.
After 30 minutes incubation with 3H-DOG at 37° C., 200 μl aliquots were transferred to microcentrifuge tubes containing 200 μl Dinonyl phthalate. Cells were rapidly separated from the aqueous buffer by centrifugation at 10,000 g for 30-60 sec. Cells separated in the top layer from the aqueous buffer by Dinonyl phthalate.
Cell associated radioactivity was counted in a liquid scintillation counter.
Glucose-uptake was measured in fresh adipocytes, incubated with or without insulin (10 μU) as described above, in the absence (control) or the presence of 10 μM of peptide K094D101 (derived from the αD region of IRK).

[4] = 4 mg/mouse intraperitoneally once a day for two consecutive days, treatment day 1
[5] = 4 mg/mouse intraperitoneally once a day for two consecutive days, treatment day 2
[6] = recovery after two days of treatment

K085D102: a Jak2-derived peptide from the αD region, SEQ ID NO:143 (GLRDYLQKHKERI), N-myristylated, C-amidated (Myristoyl-GLRDYLQKHKERI-NH2; SMILES CCCCCCCCCCCCCC(=O)NCC(=O)N[C@@H](CC(C)C)C(=O)N[C@@H](CCCNC(=N)N)C(=O)N[C@@H](CC(=O)O)C(=O)N[C@@H](Cc1ccc(O)cc1)C(=O)N[C@@H](CC(C)C)C(=O)N[C@@H](CCC(N)=O)C(=O)N[C@@H](CCCCN)C(=O)N[C@@H](Cc1c[nH]cn1)C(=O)N[C@@H](CCCCN)C(=O)N[C@@H](CCC(=O)O)C(=O)N[C@@H](CCCNC(=N)N)C(=O)N[C@H](C(N)=O)[C@@H](C)CC)
% change in body wt. (relative to day 0), treatment day 1 [1, 4]: 94% | Food Intake (g/mouse/day), treatment day 1 [1, 4]: 0.24 g/mouse/day | % change in body wt. (relative to day 0), treatment day 2 [1, 5]: 95% | Food Intake (g/mouse/day), treatment day 2 [1, 5]: 1.43 g/mouse/day | Food Intake (g/mouse/day), baseline ([1]; baseline before treatment): 3.16 g/mouse/day | % change in body wt. (relative to day 0), day 0 ([1]; day 0 (reference)): 100% | % change in body wt. (relative to day 0), recovery [1, 6]: 97% | Food Intake (g/mouse/day), recovery [1, 6]: 3.62 g/mouse/day | Melanogenesis induction: lowest concentration showing dose response (B16 melanoma cells): 0.15 µM

K086D101: Jak3 αD region peptide, SEQ ID NO:145 (GMEYLPSGSLRDFLQRHRAL), N-myristylated, C-amidated (Myristoyl-GMEYLPSGSLRDFLQRHRAL-NH2; SMILES CCCCCCCCCCCCCC(=O)NCC(=O)N[C@@H](CCSC)C(=O)N[C@@H](CCC(=O)O)C(=O)N[C@@H](Cc1ccc(O)cc1)C(=O)N[C@@H](CC(C)C)C(=O)N1CCC[C@H]1C(=O)N[C@@H](CO)C(=O)NCC(=O)N[C@@H](CO)C(=O)N[C@@H](CC(C)C)C(=O)N[C@@H](CCCNC(=N)N)C(=O)N[C@@H](CC(=O)O)C(=O)N[C@@H](Cc1ccccc1)C(=O)N[C@@H](CC(C)C)C(=O)N[C@@H](CCC(N)=O)C(=O)N[C@@H](CCCNC(=N)N)C(=O)N[C@@H](Cc1c[nH]cn1)C(=O)N[C@@H](CCCNC(=N)N)C(=O)N[C@@H](C)C(=O)N[C@@H](CC(C)C)C(N)=O)
S.I.* (μM) for PC3 Cells [2]: 0.6 µM | S.I.* (μM) for HEC Cells [3]: 0.6 µM

K086D102: Jak3 peptide derived from the αD region, SEQ ID NO:146 (GMEYLPSGSLRDFLQRHRARL), N-myristylated, C-amidated (Myristoyl-GMEYLPSGSLRDFLQRHRARL-NH2; SMILES CCCCCCCCCCCCCC(=O)NCC(=O)N[C@@H](CCSC)C(=O)N[C@@H](CCC(=O)O)C(=O)N[C@@H](Cc1ccc(O)cc1)C(=O)N[C@@H](CC(C)C)C(=O)N1CCC[C@H]1C(=O)N[C@@H](CO)C(=O)NCC(=O)N[C@@H](CO)C(=O)N[C@@H](CC(C)C)C(=O)N[C@@H](CCCNC(=N)N)C(=O)N[C@@H](CC(=O)O)C(=O)N[C@@H](Cc1ccccc1)C(=O)N[C@@H](CC(C)C)C(=O)N[C@@H](CCC(N)=O)C(=O)N[C@@H](CCCNC(=N)N)C(=O)N[C@@H](Cc1c[nH]cn1)C(=O)N[C@@H](CCCNC(=N)N)C(=O)N[C@@H](C)C(=O)N[C@@H](CCCNC(=N)N)C(=O)N[C@@H](CC(C)C)C(N)=O)
IFNγ production (Th1 conversion) (CD4+ T cells): increase | IL-4 production (Th1 conversion) (CD4+ T cells): decrease

K094D101: peptide derived from the αD region of IRK; SEQ ID NO:137 by list order, possibly SEQ ID NO:136 (myristylated) (Myristoyl-AQNNPGRPPPTL-NH2; SMILES CCCCCCCCCCCCCC(=O)N[C@@H](C)C(=O)N[C@@H](CCC(N)=O)C(=O)N[C@@H](CC(N)=O)C(=O)N[C@@H](CC(N)=O)C(=O)N1CCC[C@H]1C(=O)NCC(=O)N[C@@H](CCCNC(=N)N)C(=O)N1CCC[C@H]1C(=O)N1CCC[C@H]1C(=O)N1CCC[C@H]1C(=O)N[C@H](C(=O)N[C@@H](CC(C)C)C(N)=O)[C@@H](C)O)
Glucose uptake, % of Control, +Insulin 10 μU/ml (fresh adipocytes; insulin 10 μU/ml): 67& | Glucose-Update: Mean DPM ± SEM of Quadruplicates, +Insulin 10 μU/ml (fresh adipocytes; insulin 10 μU/ml): 1,210 ± 110 DPM | Glucose uptake, % of Control, −Insulin (fresh adipocytes; without insulin): 67% | Glucose-Update: Mean DPM ± SEM of Quadruplicates, −Insulin (fresh adipocytes; without insulin): 775 ± 72 DPM
